Experimental findings from PubChem BioAssay AID212 (DTP/NCI, 2004) are described below.

For this experiment, the system named is BDF1 mice, colon carcinoma 38 sc, T/C %. Description: NCI In Vivo Anticancer Drug Screen. Data for tumor model Colon Carcinoma 38 (subcutaneous) in B6D2F1 (BDF1) mice. The following applies: endpoint: median tumor weight (est.), higher = larger tumour. The method in brief:
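T/C readout: treated group (T) measurement over vehicle control group (C) measurement. Endpoint is survival or tumor size in mice bearing a transplanted tumor.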

Setting [1] is: dose: 25.0 mg/kg/injection, schedule: Q07DX002 (ip), vehicle: water.
The mark [2] stands for this setting: dose: 50.0 mg/kg/injection, schedule: Q07DX002 (ip), vehicle: water.
Setting [3] is: dose: 100.0 mg/kg/injection, schedule: Q07DX002 (ip), vehicle: water.
The mark [4] stands for this setting: dose: 12.5 mg/kg/injection, schedule: Q07DX002 (ip), vehicle: saline with Tween-80.
Setting [5] is: dose: 25.0 mg/kg/injection, schedule: Q07DX002 (ip), vehicle: saline with Tween-80.
[6] abbreviates: dose: 50.0 mg/kg/injection, schedule: Q07DX002 (ip), vehicle: saline with Tween-80.
Setting [7] is: dose: 200.0 mg/kg/injection, schedule: Q07DX002 (ip), vehicle: saline with Tween-80.
Setting [8] is: dose: 100.0 mg/kg/injection, schedule: Q07DX002 (ip), vehicle: saline with Tween-80.
Where [9] appears, read: dose: 400.0 mg/kg/injection, schedule: Q07DX002 (ip), vehicle: saline with Tween-80.
The mark [10] stands for this setting: dose: 50.0 mg/kg/injection, schedule: Q07DX002 (ip), vehicle: suspension in saline.
[11] abbreviates: dose: 100.0 mg/kg/injection, schedule: Q07DX002 (ip), vehicle: suspension in saline.
Where [12] appears, read: dose: 6.0 mg/kg/injection, schedule: Q07DX003 (ip), vehicle: saline.
[13] abbreviates: dose: 12.0 mg/kg/injection, schedule: Q07DX003 (ip), vehicle: saline.
Setting [14] is: dose: 24.0 mg/kg/injection, schedule: Q07DX003 (ip), vehicle: saline.

“And” between values parts separate entries of the source, which are not always exact repeats. Equal entries are not always repeated. Results filed as inconclusive are left out. Where a SMILES comes first, the peptide text is derived from it. Bridges are numbered along the chain shown (N, C = ends).

Turning to `NC(=O)c1c[se]c(C2OC(CO)C(O)C2O)n1` (stereo not given), the T/C reads like this: under setting [1], 56 % of control; (dose: 50.0 mg/kg/injection, schedule: Q07DX002 (ip), vehicle: saline) 79 % of control; under setting [2], 74 % of control; (dose: 100.0 mg/kg/injection, schedule: Q07DX002 (ip), vehicle: saline) 89 % of control; under setting [3], 44 % of control; (dose: 200.0 mg/kg/injection, schedule: Q07DX002 (ip), vehicle: saline) 73 % of control. The T/C is 42 % of control (dose: 200.0 mg/kg/injection, schedule: Q07DX002 (ip), vehicle: water); 74 % of control (dose: 400.0 mg/kg/injection, schedule: Q07DX002 (ip), vehicle: saline); 40 % of control (dose: 400.0 mg/kg/injection, schedule: Q07DX002 (ip), vehicle: water); 90 % of control (dose: 800.0 mg/kg/injection, schedule: Q07DX002 (ip), vehicle: saline).

`CN=S(=O)(OCCCCCOS(=O)(=NC)c1ccccc1)c1ccccc1` (stereo not given): the T/C under setting [4] was 58 % of control, the T/C under setting [5] is 74 % of control, the T/C under setting [6] was 69 % of control and the T/C under setting [7] is 59 % of control.

For the molecule `O=C(Nc1nncs1)c1ccncc1`, the T/C under setting [4] was 93 % of control and 98 % of control; the T/C under setting [6] is 91 % of control and 96 % of control; the T/C under setting [8] is 102 % of control; the T/C under setting [7] was 81 % of control; the T/C under setting [9] was 69 % of control and 93 % of control.

Regarding `CCC(C)C1NC(=O)C(CC(C)C)NC(=O)C(C(C)C)NC(=O)C2CSSCC(NC1=O)C(=O)N2` (stereo not given) (cyclo(CCVLI); disulfide 1-2; configuration not given here), the T/C reads like this: (dose: 128.12 micrograms/kg/injection, schedule: Q07DX002 (ip), vehicle: Klucel (hydroxypropylcellulose) (HPC)) 160 % of control; (dose: 256.25 micrograms/kg/injection, schedule: Q07DX002 (ip), vehicle: Klucel (hydroxypropylcellulose) (HPC)) 118 % of control.

`O=c1n(CC2CO2)c(=O)n(CC2CO2)c(=O)n1CC1CO1` (stereo not given): the T/C is 121 % of control (dose: 12.0 mg/kg/injection, schedule: Q07DX002 (ip), vehicle: saline with Tween-80); 170 % of control under setting [4]; 101 % of control and 88 % of control and 89 % of control (dose: 12.5 mg/kg/injection, schedule: Q07DX002 (ip), vehicle: suspension in saline); 43 % of control (dose: 25.0 mg/kg/injection, schedule: Q07DX003 (ip), vehicle: saline); 119 % of control and 102 % of control under setting [6]; 66 % of control and 42 % of control and 62 % of control under setting [10]. Also, the T/C by setting is: (dose: 50.0 mg/kg/injection, schedule: Q07DX003 (ip), vehicle: saline) 36 % of control; under setting [8], 42 % of control and 65 % of control; under setting [11], 81 % of control; (dose: 200.0 mg/kg/injection, schedule: Q07DX002 (ip), vehicle: suspension in saline) 81 % of control.

In the case of `O=C1NC(O)c2ccccc2O1` (stereo not given), the T/C is, setting by setting: under setting [5], 93 % of control; (dose: 25.0 mg/kg/injection, schedule: Q07DX002 (ip), vehicle: suspension in saline) 64 % of control; under setting [6], 90 % of control; under setting [10], 113 % of control and 93 % of control; under setting [8], 75 % of control; under setting [11], 60 % of control and 70 % of control. The T/C reads like this: under setting [7], 69 % of control; under setting [9], 82 % of control.

For the molecule `Cn1cnc([N+](=O)[O-])c1[Se]c1nc(N)nc2nc[nH]c12`, the T/C was 62 % of control (dose: 3.12 mg/kg/injection, schedule: Q07DX002 (ip), vehicle: water); 36 % of control (dose: 6.25 mg/kg/injection, schedule: Q07DX002 (ip), vehicle: water); 87 % of control (dose: 12.5 mg/kg/injection, schedule: Q07DX002 (ip), vehicle: water); 73 % of control under setting [1]; 54 % of control under setting [2]; 57 % of control under setting [3].

As for `O=CC(NC(=O)N(CCCl)N=O)C(O)C(O)C(O)CO` (stereo not given), the T/C is, setting by setting: (dose: 0.47 mg/kg/injection, schedule: Q07DX003 (ip), vehicle: saline) 102 % of control; (dose: 0.94 mg/kg/injection, schedule: Q07DX003 (ip), vehicle: saline) 98 % of control; (dose: 1.5 mg/kg/injection, schedule: Q07DX002 (ip), vehicle: saline) 105 % of control; (dose: 3.75 mg/kg/injection, schedule: Q07DX003 (ip), vehicle: saline) 68 % of control; (dose: 4.0 mg/kg/injection, schedule: Q07DX002 (ip), vehicle: saline) 92 % of control; under setting [12], 68 % of control. Also, the T/C reads like this: (dose: 7.5 mg/kg/injection, schedule: Q07DX003 (ip), vehicle: saline) 68 % of control; (dose: 8.0 mg/kg/injection, schedule: Q07DX002 (ip), vehicle: saline) 57 % of control; under setting [13], 82 % of control; (dose: 15.0 mg/kg/injection, schedule: Q07DX003 (ip), vehicle: saline) 43 % of control; (dose: 16.0 mg/kg/injection, schedule: Q07DX002 (ip), vehicle: saline) 43 % of control; under setting [14], 57 % of control.

In the case of `CCN(CC)CCOCc1cccc2c(=O)cc(-c3ccccc3)oc12`, the T/C by setting is: (dose: 50.0 mg/kg/injection, schedule: Q07DX002 (ip), vehicle: Klucel (hydroxypropylcellulose) (HPC)) 66 % of control; (dose: 100.0 mg/kg/injection, schedule: Q07DX002 (ip), vehicle: Klucel (hydroxypropylcellulose) (HPC)) 57 % of control.

`CS(=O)(=O)OCCCCOS(C)(=O)=O`: the T/C (dose: 32.0 mg/kg/injection, schedule: Q01DX005 (ip), vehicle: saline with Tween-80) was 15 % of control.

As for `Cc1cc2c(cc1C)C(=O)c1c(O)c3c(c(O)c1C2=O)C[C@@](O)(C(=O)CO)C[C@@H]3OC1CC(N)C(O)C(C)O1` (stereo not given in full), the T/C runs as follows: (dose: 4.75 mg/kg/injection, schedule: Q07DX002 (ip), vehicle: distilled water + Tween-80) 51 % of control; (dose: 6.33 mg/kg/injection, schedule: Q07DX002 (ip), vehicle: distilled water + Tween-80) 65 % of control; (dose: 8.44 mg/kg/injection, schedule: Q07DX002 (ip), vehicle: distilled water + Tween-80) 28 % of control; (dose: 11.25 mg/kg/injection, schedule: Q07DX002 (ip), vehicle: distilled water + Tween-80) 23 % of control; (dose: 15.0 mg/kg/injection, schedule: Q07DX002 (ip), vehicle: distilled water + Tween-80) 17 % of control.

As to `Cc1c(N)nc([C@H](CC(N)=O)NC[C@H](N)C(N)=O)nc1C(=O)N[C@H](C(=O)N[C@H](C)[C@@H](O)[C@H](C)C(=O)N[C@H](C(=O)NCCc1nc(-c2nc(C(=O)NCCC[S+](C)C)cs2)cs1)[C@@H](C)O)C(OC1OC(CO)C(O)C(O)C1OC1OC(CO)C(O)C(OC(N)=O)C1O)c1cnc[nH]1` (stereo not given in full), the T/C runs as follows: (dose: 3.0 mg/kg/injection, schedule: Q07DX003 (ip), vehicle: saline) 62 % of control; under setting [12], 88 % of control; under setting [13], 63 % of control; under setting [14], 85 % of control; (dose: 48.0 mg/kg/injection, schedule: Q07DX003 (ip), vehicle: saline) 60 % of control.
